One assay concerns the target T1, K-Ras G12D (Homo sapiens, UniProt P01116, G12D).
T1 construct: made in house; host or cells: E. coli BL21 (DE3)
Briefly: HTRF resonance energy transfer assay, K-Ras G12D / SOS1 interaction. It is filed as biochemical. Conditions: HTRF assay of Example 5; read-out: IC50 against K-Ras G12D. An outline of the steps: (§1)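 Compounds, tested in duplicate at 10 μM down to 0.01 μM, were read after about 10 min or more by HTRF as the 665/620 nm emission ratio (337 nm excitation) to derive IC50. This ratio reports FRET between an anti-GST-Eu donor on GST-K-Ras (wild-type or mutant) and an anti-6His-XL665 acceptor on His-hSOS1. Buffer: ~5 mM HEPES pH 7.4, 150 mM NaCl, 1 mM DTT, 0.05% BSA, 0.0025% Igepal.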
In general terms: TR-FRET usually uses a lanthanide donor and a delayed reading to cut background.

The target in the next assay is T2, K-Ras WT (Homo sapiens, UniProt P01116).
T2 construct: made in house; host or cells: E. coli BL21 (DE3)
Briefly: HTRF resonance energy transfer assay, K-Ras WT / SOS1 interaction. It is filed as biochemical. The following applies: HTRF assay of Example 5; read-out: IC50 against K-Ras WT. An outline of the steps: as §1

In the next assay the test system is A549 cells. The experiment in a line: Ras cellular assay, growth of cells with K-Ras G12S mutation (CellTiter-Glo). Conditions: Homo sapiens, cell growth, Example 9, G12S mutation, read-out: IC50 against A549 cells. The assay is classed as cell-based. An outline of the steps: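 Growth inhibition IC50 values come from four-parameter fits of CellTiter-Glo luminescence, read about 6 days after compound addition. G12S-mutant A549 cells (e.g. 800/well, RPMI-1640 + 10% heat-inactivated FBS) were plated in tissue-culture-treated or ultra-low-attachment 384-well format. Dosing began the following day with serial dilutions, e.g. 10 points, 3-fold.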
Background: Cellular ATP, detected with luciferase, serves as a proxy for viable cell number.

The next assay has as its target T3, K-Ras G12S (Homo sapiens, UniProt P01116, G12S).
T3 construct: made in house; host or cells: E. coli BL21 (DE3)
Briefly: HTRF resonance energy transfer assay, K-Ras G12S / SOS1 interaction. The following applies: HTRF assay of Example 5; read-out: IC50 against K-Ras G12S. The assay is classed as biochemical. An outline of the steps:
as §1

A further assay concerns SW620 cells. The experiment in a line: Ras cellular assay, growth of cells with K-Ras G12V mutation (CellTiter-Glo). The assay is classed as cell-based. Conditions: Homo sapiens, SW-620; cell growth, Example 9, G12V mutation; read-out: IC50 against SW620 cells. An outline of the steps: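 IC50 values came from a four-parameter fit of CellTiter-Glo viability, read roughly 6 days after dosing with e.g. a 10-point threefold dilution series. G12V-mutant SW620 cells (e.g. 800 per well) had been plated the previous day in RPMI-1640/10% heat-inactivated FBS, on tissue culture-treated or ultra-low attachment plates.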

The next assay deals with T4, K-Ras G12V (Homo sapiens, UniProt P01116, G12V).
T4 construct: made in house; host or cells: E. coli BL21 (DE3)
Briefly: HTRF resonance energy transfer assay, K-Ras G12V / SOS1 interaction. The assay is classed as biochemical. Conditions: HTRF assay of Example 5; read-out: IC50 against K-Ras G12V. An outline of the steps: as §1

The next assay concerns GP2D cells. The experiment in a line: Ras cellular assay, growth of cells with K-Ras G12D mutation (CellTiter-Glo). The assay is classed as cell-based. Conditions: cell growth, Example 9, G12D mutation, read-out: IC50 against GP2D cells.

Nine compounds from US12209102B2, “Heterocyclic compounds and uses thereof” (Kumquat Biosciences Inc., priority 2022, dated 2025) can be followed below.

One may read the IC50 as the point on the concentration scale where inhibition reaches its midpoint.

T4 sequence (P01116 1-188 isoform P01116-2 G12V): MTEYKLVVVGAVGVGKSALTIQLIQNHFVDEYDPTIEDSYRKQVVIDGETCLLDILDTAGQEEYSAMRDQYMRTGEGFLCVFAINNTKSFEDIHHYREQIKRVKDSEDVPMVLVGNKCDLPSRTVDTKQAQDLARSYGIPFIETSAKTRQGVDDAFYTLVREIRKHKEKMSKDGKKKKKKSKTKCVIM
T1 sequence (P01116 1-188 isoform P01116-2 G12D): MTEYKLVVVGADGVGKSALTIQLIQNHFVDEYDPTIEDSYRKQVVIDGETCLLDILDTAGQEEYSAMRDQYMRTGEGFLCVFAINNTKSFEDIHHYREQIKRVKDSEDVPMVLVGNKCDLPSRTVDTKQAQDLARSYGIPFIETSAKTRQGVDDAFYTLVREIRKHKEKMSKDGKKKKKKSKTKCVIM
T2 sequence (P01116 1-188 isoform P01116-2): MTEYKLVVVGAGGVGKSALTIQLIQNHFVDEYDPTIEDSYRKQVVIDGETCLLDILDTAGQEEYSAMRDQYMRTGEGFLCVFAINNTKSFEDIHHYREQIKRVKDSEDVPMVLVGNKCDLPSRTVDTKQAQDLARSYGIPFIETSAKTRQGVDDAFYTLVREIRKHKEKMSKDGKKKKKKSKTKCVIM
T3 sequence (P01116 1-188 isoform P01116-2 G12S): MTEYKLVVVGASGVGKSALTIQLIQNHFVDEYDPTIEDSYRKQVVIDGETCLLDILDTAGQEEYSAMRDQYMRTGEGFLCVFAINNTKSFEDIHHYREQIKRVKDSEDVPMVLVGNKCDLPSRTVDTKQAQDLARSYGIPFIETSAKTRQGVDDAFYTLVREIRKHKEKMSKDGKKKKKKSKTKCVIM

Take `N#Cc1c(N)sc2c(F)ccc(-c3c(Cl)c4c5c(nc(OC[C@@]67CCCN6C[C@H](F)C7)nc5c3F)N(CCC(F)(F)F)CCO4)c12` [Compound 932, 2-amino-4-(8-chloro-10-fluoro-2-(((2R,7aS)-2-fluorotetrahydro-1H-pyrrolizin-7a(5H)-yl)methoxy)-4-(3,3,3-trifluoropropyl)-5,6-dihydro-4H-[1,4]oxazepino[5,6,7-de]quinazolin-9-yl)-7-fluorobenzo[b]thiophene-3-carbonitrile]: the IC50 was under 100 nM on K-Ras G12D; under 100 nM at K-Ras WT; under 5 µM in the assay on A549 cells; under 100 nM at K-Ras G12S; under 5 µM with SW620 cells; under 100 nM at K-Ras G12V. Also, the IC50 in the assay on GP2D cells was under 500 nM.

With `CC(CO)N1CCOc2c(Cl)c(-c3ccc(F)c4sc(N)c(C#N)c34)c(F)c3nc(OC[C@@]45CCCN4C[C@H](F)C5)nc1c23` (stereo partly drawn) [Compound 937, 2-amino-4-(8-chloro-10-fluoro-2-(((2R,7aS)-2-fluorotetrahydro-1H-pyrrolizin-7a(5H)-yl)methoxy)-4-(1-hydroxypropan-2-yl)-5,6-dihydro-4H-[1,4]oxazepino[5,6,7-de]quinazolin-9-yl)-7-fluorobenzo[b]thiophene-3-carbonitrile], the IC50 at K-Ras G12D is under 100 nM; on K-Ras WT, under 100 nM; with A549 cells it was under 5 µM; on K-Ras G12S it was under 100 nM; in the assay on SW620 cells, under 5 µM; on K-Ras G12V it was under 100 nM. Also, the IC50 in the assay on GP2D cells is under 500 nM.

In the case of `N#Cc1c(N)sc2c(F)ccc(-c3c(Cl)c4c5c(nc(OC[C@@]67CCCN6C[C@H](F)C7)nc5c3F)N([C@H]3CCN(C(=O)C(F)F)C3)CCO4)c12` [Compound 940, 2-amino-4-(8-chloro-4-((S)-1-(2,2-difluoroacetyl)pyrrolidin-3-yl)-10-fluoro-2-(((2R,7aS)-2-fluorotetrahydro-1H-pyrrolizin-7a(5H)-yl)methoxy)-5,6-dihydro-4H-[1,4]oxazepino[5,6,7-de]quinazolin-9-yl)-7-fluorobenzo[b]thiophene-3-carbonitrile], the IC50 on K-Ras G12D is under 100 nM; at K-Ras WT, under 100 nM; with A549 cells it was under 5 µM; on K-Ras G12S it was under 100 nM; in the assay on SW620 cells, under 5 µM; on K-Ras G12V it was under 100 nM. Moreover, in the assay on GP2D cells, the IC50 was under 500 nM.

Turning to `CC1Oc2c(Cl)c(-c3ccc(F)c4sc(N)c(C#N)c34)c(F)c3nc(OC[C@@]45CCCN4C[C@H](F)C5)nc(c23)N(CC(F)F)C1C` (stereo partly drawn) [Compound 944, 2-amino-4-(8-chloro-4-(2,2-difluoroethyl)-10-fluoro-2-(((2R,7aS)-2-fluorotetrahydro-1H-pyrrolizin-7a(5H)-yl)methoxy)-5,6-dimethyl-5,6-dihydro-4H-[1,4]oxazepino[5,6,7-de]quinazolin-9-yl)-7-fluorobenzo[b]thiophene-3-carbonitrile], the IC50 at K-Ras G12D was under 100 nM; at K-Ras WT, under 100 nM; in the assay with A549 cells, under 5 µM; at K-Ras G12S, under 100 nM; in the assay with SW620 cells it was under 5 µM; on K-Ras G12V it was under 100 nM. Also, the IC50 with GP2D cells was under 500 nM.

With `C[C@H]1CN(CCN(C)C)c2nc(OC[C@@]34CCCN3C[C@H](F)C4)nc3c(F)c(-c4ccc(F)c5sc(N)c(C#N)c45)c(Cl)c(c23)O1` [Compound 950, 2-amino-4-((6S)-8-chloro-4-(2-(dimethylamino)ethyl)-10-fluoro-2-(((2R,7aS)-2-fluorotetrahydro-1H-pyrrolizin-7a(5H)-yl)methoxy)-6-methyl-5,6-dihydro-4H-[1,4]oxazepino[5,6,7-de]quinazolin-9-yl)-7-fluorobenzo[b]thiophene-3-carbonitrile], the half-inhibitory concentration (IC50) is under 100 nM at K-Ras G12D; under 100 nM on K-Ras WT; under 5 µM in the assay with A549 cells; under 100 nM at K-Ras G12S; under 5 µM in the assay with SW620 cells; under 100 nM on K-Ras G12V. Further, in the assay on GP2D cells, the IC50 was under 500 nM.

Take `N#Cc1c(N)sc2c(F)ccc(-c3c(Cl)c4c5c(nc(OC[C@@]67CCCN6C[C@H](F)C7)nc5c3F)N(CC3CC(F)(F)C3)CCO4)c12` [Compound 951, 2-amino-4-(8-chloro-4-((3,3-difluorocyclobutyl)methyl)-10-fluoro-2-(((2R,7aS)-2-fluorotetrahydro-1H-pyrrolizin-7a(5H)-yl)methoxy)-5,6-dihydro-4H-[1,4]oxazepino[5,6,7-de]quinazolin-9-yl)-7-fluorobenzo[b]thiophene-3-carbonitrile]: the IC50 is under 100 nM at K-Ras G12D; under 100 nM at K-Ras WT; under 5 µM in the assay with A549 cells; under 100 nM at K-Ras G12S; under 5 µM with SW620 cells; under 100 nM at K-Ras G12V. Also, in the assay with GP2D cells, the IC50 was under 500 nM.

In the case of `C[C@H](O)[C@H]1COc2c(Cl)c(-c3ccc(F)c4sc(N)c(C#N)c34)c(F)c3nc(OC[C@@]45CCCN4C[C@H](F)C5)nc(c23)N1CCC(F)F` [Compound 954, 2-amino-4-((5R)-8-chloro-4-(3,3-difluoropropyl)-10-fluoro-2-(((2R,7aS)-2-fluorotetrahydro-1H-pyrrolizin-7a(5H)-yl)methoxy)-5-((S)-1-hydroxyethyl)-5,6-dihydro-4H-[1,4]oxazepino[5,6,7-de]quinazolin-9-yl)-7-fluorobenzo[b]thiophene-3-carbonitrile], the half-maximal inhibitory concentration (IC50) on K-Ras G12D is under 100 nM; at K-Ras WT it was under 100 nM; with A549 cells, under 5 µM; at K-Ras G12S, under 100 nM; in the assay on SW620 cells, under 5 µM; at K-Ras G12V it was under 100 nM. The IC50 with GP2D cells was under 500 nM.

Consider `N#Cc1c(N)sc2c(F)ccc(-c3c(Cl)c4c5c(nc(OC[C@@]67CCCN6C[C@H](F)C7)nc5c3F)N(C3CC35CN(C=O)C5)CCO4)c12` (stereo partly drawn) [Compound 957, 2-amino-4-(8-chloro-10-fluoro-2-(((2R,7aS)-2-fluorotetrahydro-1H-pyrrolizin-7a(5H)-yl)methoxy)-4-(5-formyl-5-azaspiro[2.3]hexan-1-yl)-5,6-dihydro-4H-[1,4]oxazepino[5,6,7-de]quinazolin-9-yl)-7-fluorobenzo[b]thiophene-3-carbonitrile], for which the IC50 at K-Ras G12D was under 100 nM; at K-Ras WT, under 100 nM; with A549 cells it was under 5 µM; at K-Ras G12S, under 100 nM; with SW620 cells, under 5 µM; on K-Ras G12V it was under 100 nM. The IC50 in the assay on GP2D cells was under 500 nM.

Regarding `N#Cc1c(N)sc2c(F)ccc(-c3c(Cl)c4c5c(nc(OC[C@@]67CCCN6C[C@H](F)C7)nc5c3F)N(C3CCN(C(=O)[C@@H]5CCOC5)C3)CCO4)c12` (stereo partly drawn) [Compound 960, 2-amino-4-(8-chloro-10-fluoro-2-(((2R,7aS)-2-fluorotetrahydro-1H-pyrrolizin-7a(5H)-yl)methoxy)-4-(1-((R)-tetrahydrofuran-3-carbonyl)pyrrolidin-3-yl)-5,6-dihydro-4H-[1,4]oxazepino[5,6,7-de]quinazolin-9-yl)-7-fluorobenzo[b]thiophene-3-carbonitrile], the IC50 on K-Ras G12D was under 100 nM; on K-Ras WT it was under 100 nM; in the assay with A549 cells, under 5 µM; on K-Ras G12S, under 100 nM; in the assay with SW620 cells it was under 5 µM; on K-Ras G12V it was under 100 nM. Further, in the assay on GP2D cells, the 50% inhibitory concentration (IC50) was under 500 nM.
